Assay results reported in patent US20260262643A1, “HERBICIDAL BENZOXAZINES” (FMC CORPORATION, priority 2022, published 2026).

How the values were obtained:
[1] = tested on: oat, wild; assay: Test C postemergence; assay type: in vivo, Avena fatua; details: 10 days
Outline: (§1)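 Seeds in loam–sand blend received preemergence directed soil spray of test chemicals in non-phytotoxic solvent with surfactant; postemergence treatment was applied at one- to two-leaf stage (2–10 cm). After 10 days in greenhouse, injury rated visually versus untreated controls, 0 (no effect) to 100 (complete control).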

[2] = tested on: kochia; assay: Test C preemergence; assay type: in vivo, Bassia scoparia; details: 0 to 100 scale (0 no effect, 100 complete control)
Outline: as §1

[3] = tested on: pigweed, palmer; assay: Test C postemergence; assay type: in vivo, Amaranthus palmeri; details: 10 days
Outline: as §1

[4] = tested on: galium; assay: Test C postemergence; assay type: in vivo, Galium aparine; details: 10 days
Outline: as §1

[5] = tested on: blackgrass; assay: Test C postemergence; assay type: in vivo, Alopecurus myosuroides; details: 10 days
Outline: as §1

[6] = tested on: corn; assay: Test C postemergence; assay type: in vivo, Zea mays; details: 10 days
Outline: as §1

[7] = tested on: green foxtail; assay: Test C preemergence; assay type: in vivo, Setaria viridis; details: 0 to 100 scale (0 no effect, 100 complete control)
Outline: as §1

[8] = tested on: ducksalad; assay: Test D flooded paddy test; assay type: in vivo, Heteranthera limosa; details: 250 g ai/ha, applied to paddy water, visual rating after 13 to 14 days, scale 0 to 100 (0 no effect, 100 complete control)
Outline: (§2)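 Post-flood water application at the 2-leaf stage; 3 cm flood depth kept constant; visual control rating 0–100 after 13–14 days greenhouse growth.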

[9] = tested on: ragweed; assay: Test C postemergence; assay type: in vivo, Ambrosia artemisiifolia; details: 10 days
Outline: as §1

[10] = tested on: blackgrass; assay: Test C preemergence; assay type: in vivo, Alopecurus myosuroides; details: 0 to 100 scale (0 no effect, 100 complete control)
Outline: as §1

[11] = tested on: wheat; assay: Test C postemergence; assay type: in vivo, Triticum aestivum; details: 10 days
Outline: as §1

[12] = tested on: soybean; assay: Test C postemergence; assay type: in vivo, Glycine max; details: 10 days
Outline: as §1

[13] = tested on: oat, wild; assay: Test C preemergence; assay type: in vivo, Avena fatua; details: 0 to 100 scale (0 no effect, 100 complete control)
Outline: as §1

[14] = tested on: green foxtail; assay: Test C postemergence; assay type: in vivo, Setaria viridis; details: 10 days
Outline: as §1

[15] = tested on: barnyardgrass; assay: Test D flooded paddy test; assay type: in vivo, Echinochloa crus-galli; details: 250 g ai/ha, applied to paddy water, visual rating after 13 to 14 days, scale 0 to 100 (0 no effect, 100 complete control)
Outline: as §2

[16] = tested on: wheat; assay: Test C preemergence; assay type: in vivo, Triticum aestivum; details: 0 to 100 scale (0 no effect, 100 complete control)
Outline: as §1

[17] = tested on: corn; assay: Test C preemergence; assay type: in vivo, Zea mays; details: 0 to 100 scale (0 no effect, 100 complete control)
Outline: as §1

[18] = tested on: ragweed; assay: Test C preemergence; assay type: in vivo, Ambrosia artemisiifolia; details: 0 to 100 scale (0 no effect, 100 complete control)
Outline: as §1

[19] = tested on: sedge, umbrella; assay: Test D flooded paddy test; assay type: in vivo, Cyperus difformis; details: 250 g ai/ha, applied to paddy water, visual rating after 13 to 14 days, scale 0 to 100 (0 no effect, 100 complete control)
Outline: as §2

[20] = tested on: rice; assay: Test D flooded paddy test; assay type: in vivo, Oryza sativa; details: 250 g ai/ha, applied to paddy water, visual rating after 13 to 14 days, scale 0 to 100 (0 no effect, 100 complete control)
Outline: as §2

[21] = tested on: barnyardgrass; assay: Test C preemergence; assay type: in vivo, Echinochloa crusgalli; details: 0 to 100 scale (0 no effect, 100 complete control)
Outline: as §1

[22] = tested on: soybean; assay: Test C preemergence; assay type: in vivo, Glycine max; details: 0 to 100 scale (0 no effect, 100 complete control)
Outline: as §1

[23] = tested on: kochia; assay: Test C postemergence; assay type: in vivo, Bassia scoparia; details: 10 days
Outline: as §1

[24] = tested on: ryegrass, Italian; assay: Test C preemergence; assay type: in vivo, Lolium multiflorum; details: 0 to 100 scale (0 no effect, 100 complete control)
Outline: as §1

[25] = tested on: horseweed; assay: Test C postemergence; assay type: in vivo, Erigeron canadensis; details: 10 days
Outline: as §1

[26] = tested on: barnyardgrass; assay: Test C postemergence; assay type: in vivo, Echinochloa crusgalli; details: 10 days
Outline: as §1

[27] = tested on: pigweed, palmer; assay: Test C preemergence; assay type: in vivo, Amaranthus palmeri; details: 0 to 100 scale (0 no effect, 100 complete control)
Outline: as §1

[28] = tested on: ryegrass, Italian; assay: Test C postemergence; assay type: in vivo, Lolium multiflorum; details: 10 days
Outline: as §1

[29] = 125 g ai/ha, postemergence, 0 to 100 scale, 0 no effect, 100 complete control
[30] = Postemergence, 500 g ai/ha, visual 0 to 100 scale (0 no effect, 100 complete control)
[31] = Preemergence, 500 g ai/ha, visual rating after 10 days
[32] = Test C, preemergence, 125 g ai/ha

In the case of `COc1ccc(-n2cncn2)cc1C(=O)N1C[C@H](C)Oc2c(Cl)cccc21` [Compound 241], the “Plant response rating, Oat, Wild” value [1, 29] is reported as 60, the “Plant response rating, Oat, Wild” value [1, 30] is reported as 90 and the “Plant response rating, Kochia” value [2, 31] is reported as 80. The “Kochia plant response rating” value [2, 32] was 20, the “Plant response rating, Pigweed, Palmer” value [3, 29] was 70 and the “Plant response rating, Pigweed, Palmer” value [3, 30] was 90. For the same compound, the “Plant response rating, Galium” value [4, 29] was 100, the “Plant response rating, Galium” value [4, 30] was 100 and the “Plant response rating, Blackgrass” value [5, 29] was 90. For the same compound, the “Plant response rating, Blackgrass” value [5, 30] was 100, the “Plant response rating, Corn” value [6, 29] was 60 and the “Plant response rating, Corn” value [6, 30] was 100. For the same compound, the “Plant response rating, Foxtail, Green” value [7, 31] was 100, the “Foxtail, Green plant response rating” value [7, 32] was 100 and the “Plant response rating, Ducksalad (Flood)” value [8] was 90. The “Plant response rating, Ragweed” value [9, 29] was 50, the “Plant response rating, Ragweed” value [9, 30] was 90 and the “Plant response rating, Blackgrass” value [10, 31] was 70. The “Blackgrass plant response rating” value [10, 32] was 50, the “Plant response rating, Wheat” value [11, 29] was 50 and the “Plant response rating, Wheat” value [11, 30] was 90. The “Plant response rating, Soybean” value [12, 29] was 100, the “Plant response rating, Soybean” value [12, 30] was 100 and the “Plant response rating, Oat, Wild” value [13, 31] was 90. For the same compound, the “Oat, Wild plant response rating” value [13, 32] was 50, the “Plant response rating, Foxtail, Green” value [14, 29] was 90 and the “Plant response rating, Foxtail, Green” value [14, 30] was 90. For the same compound, the “Plant response rating, Barnyardgrass (Flood)” value [15] was 50, the “Plant response rating, Wheat” value [16, 31] was 90 and the “Wheat plant response rating” value [16, 32] was 60. The “Plant response rating, Corn” value [17, 31] was 70, the “Corn plant response rating” value [17, 32] was 20 and the “Plant response rating, Ragweed” value [18, 31] was 10. For the same compound, the “Ragweed plant response rating” value [18, 32] was 10, the “Plant response rating, Sedge, Umbrella (Flood)” value [19] was 100 and the “Plant response rating, Rice (Flood)” value [20] was 15. The “Plant response rating, Barnyardgrass” value [21, 31] was 100, the “Barnyardgrass plant response rating” value [21, 32] was 90 and the “Plant response rating, Soybean” value [22, 31] was 100. The “Soybean plant response rating” value [22, 32] was 100, the “Plant response rating, Kochia” value [23, 29] was 20 and the “Plant response rating, Kochia” value [23, 30] was 70. The “Plant response rating, Ryegrass, Italian” value [24, 31] was 90, the “Ryegrass, Italian plant response rating” value [24, 32] was 90 and the “Plant response rating, Horseweed” value [25, 29] was 50. The “Plant response rating, Horseweed” value [25, 30] was 90, the “Plant response rating, Barnyardgrass” value [26, 29] was 100 and the “Plant response rating, Barnyardgrass” value [26, 30] was 100. The “Plant response rating, Pigweed, Palmer” value [27, 31] was 100, the “Pigweed, Palmer plant response rating” value [27, 32] was 100 and the “Plant response rating, Ryegrass, Italian” value [28, 29] was 90. For the same compound, the “Plant response rating, Ryegrass, Italian” value [28, 30] was 100.
